Source: ChEMBL document CHEMBL3045410, “Synthesis and in vitro antitumor activity of 1-(3-dimethylamino)propyl indolin-2-one derivatives” (Med Chem Res, 2013)

What was measured:
HUVEC [1] = assay: Cytotoxicity against HUVECs assessed as growth inhibition by MTT assay; format: cell-based; conditions: Homo sapiens
A549 [2] = assay: Ratio of sunitinib IC50 to compound IC50 for Homo sapiens (human) A549 cells; format: functional
HL-60 [3] = assay: Cytotoxicity against Homo sapiens (human) HL60 cells assessed as growth inhibition by MTT assay; format: functional, cell-based
MDA-MB-231 [4] = assay: Cytotoxicity against Homo sapiens (human) MDA-MB-231 cells assessed as growth inhibition by MTT assay; format: functional, cell-based
MDA-MB-231 [5] = assay: Ratio of sunitinib IC50 to compound IC50 for Homo sapiens (human) MDA-MB-231 cells; format: functional
HL-60 [6] = assay: Ratio of sunitinib IC50 to compound IC50 for Homo sapiens (human) HL60 cells; format: functional
HUVEC [7] = assay: Cytotoxicity against VEGF-stimulated HUVECs assessed as growth inhibition by MTT assay; format: functional, cell-based; conditions: Homo sapiens
HUVEC [8] = assay: Cytotoxicity against recombinant Homo sapiens (human) basic FGF-stimulated HUVECs assessed as growth inhibition by MTT assay; format: functional, cell-based
A549 [9] = assay: Ratio of LK-B030 IC50 to compound IC50 for Homo sapiens (human) A549 cells; format: functional
K562 [10] = assay: Cytotoxicity against Homo sapiens (human) K562 cells assessed as growth inhibition by MTT assay; format: functional, cell-based
K562 [11] = assay: Ratio of sunitinib IC50 to compound IC50 for Homo sapiens (human) K562 cells; format: functional
IM-9 = assay: Cytotoxicity against Homo sapiens (human) IM9 cells assessed as growth inhibition by MTT assay; format: functional, cell-based
MDA-MB-231 [12] = assay: Ratio of LK-B030 IC50 to compound IC50 for Homo sapiens (human) MDA-MB-231 cells; format: functional
A549 [13] = assay: Cytotoxicity against Homo sapiens (human) A549 cells assessed as growth inhibition by MTT assay; format: functional, cell-based

| Structure (SMILES) | IC50 (HUVEC [1]) | Ratio IC50 (A549 [2]) | IC50 (HL-60 [3]) | IC50 (MDA-MB-231 [4]) | Ratio IC50 (MDA-MB-231 [5]) | Ratio IC50 (HL-60 [6]) | IC50 (HUVEC [7]) | IC50 (HUVEC [8]) | Ratio IC50 (A549 [9]) | IC50 (K562 [10]) | Ratio IC50 (K562 [11]) | IC50 (IM-9) | Ratio IC50 (MDA-MB-231 [12]) | IC50 (A549 [13]) |
| --- | --- | --- | --- | --- | --- | --- | --- | --- | --- | --- | --- | --- | --- | --- |
| CCN(CC)CCNC(=O)c1c(C)[nH]c(/C=C2\C(=O)N(CCCN(C)C)c3ccc(Cl)cc32)c1C | 5.57 µM |  |  |  |  |  |  |  |  |  |  |  |  |  |
| CCOC(=O)c1c(C)[nH]c(/C=C2\C(=O)N(CCCN(C)C)c3ccc(Cl)cc32)c1C.Cl | 22 µM | 1.8 | 1.17 µM | 1.47 µM | 1.8 | 1.8 | 9.66 µM | 10.2 µM | 1.6 | 1.36 µM | 1.8 | 2.95 µM | 1.6 | 1.1 µM |
| Cc1[nH]c(/C=C2\C(=O)N(CCCN(C)C)c3ccc(Cl)cc32)c(C)c1C(=O)N1CCOCC1 | 14.2 µM |  | 4.64 µM | 9.69 µM |  |  | 4.21 µM | 10.7 µM |  | 5.46 µM |  | 7.65 µM |  | 8.6 µM |
| C/C(=C1/C(=O)N(CCCN(C)C)c2ccc(F)cc21)c1ccc[nH]1 | 13.9 µM |  | 7.99 µM | 5.92 µM |  |  | 9.71 µM | 8.83 µM |  | 6.41 µM |  | 6.68 µM |  | 8.27 µM |
| CC/C(=C1/C(=O)N(CCCN(C)C)c2ccc(F)cc21)c1ccc[nH]1 | 22.2 µM |  | 10.3 µM | 10.6 µM |  |  | 9.57 µM | 9.75 µM |  | 8.82 µM |  | 11 µM |  | 16.9 µM |
| CN(C)CCCN1C(=O)/C(=C(/c2ccccc2)c2ccc[nH]2)c2cc(F)ccc21 | 42.8 µM |  | 7.16 µM | 6.92 µM |  |  | 9.52 µM | 8.83 µM |  | 6.43 µM |  | 5.64 µM |  | 11.4 µM |
| CN(C)CCCN1C(=O)C(=C(c2ccccc2)c2ccccc2)c2cc(F)ccc21 | 32.8 µM |  | 10.1 µM | 6.61 µM |  |  | 8.42 µM | 10.9 µM |  | 6.85 µM |  | 9.38 µM |  | 13.4 µM |
| CCOC(=O)c1c(C)[nH]c(/C=C2\C(=O)N(CCCN(C)C)c3ccc(F)cc32)c1C | 8.56 µM |  | 1.36 µM | 3.86 µM |  |  | 10.1 µM | 1.81 µM |  | 1.54 µM |  | 3.21 µM |  | 1.55 µM |
| Cc1[nH]c(/C=C2\C(=O)N(CCCN(C)C)c3ccc(F)cc32)c(C)c1C(=O)N1CCOCC1 | 29.4 µM |  | 13.2 µM | 14.7 µM |  |  | 9.11 µM | 22 µM |  | 57 µM |  | 61.5 µM |  | 21.7 µM |
| CCN(CC)CCNC(=O)c1c(C)[nH]c(/C=C2\C(=O)Nc3ccc(F)cc32)c1C [SUNITINIB] | 3.9 µM |  |  |  |  |  |  |  |  |  |  |  |  |  |
